We go through 20 compounds from ChEMBL document CHEMBL1909046, “DrugMatrix in vitro pharmacology data”.

Assay [1] addresses 5-hydroxytryptamine receptor 6 (Homo sapiens, UniProt P50406). In kind it is cell membranes, HeLa, Membrane. To be noted: hela.
In assay [2] the target is 5-hydroxytryptamine receptor 1B (Rattus norvegicus, UniProt P28564). It is filed as cell membranes, Wistar, Cerebral cortex, Membrane. Further: in other assays of this panel Not Active means under 50% inhibition at 10 µM.
The target of assay [3] is Mitogen-activated protein kinase 1 (Homo sapiens, UniProt P28482). Put plainly: DRUGMATRIX: Protein Serine/Threonine Kinase, ERK2 enzyme inhibition (substrate: Myelin Basic Protein). On the set-up: species or system Escherichia coli. To be noted: Not Active = under 50% inhibition at 10 µM.
The target of assay [4] is C-C chemokine receptor type 5 (Homo sapiens, UniProt P51681). It is filed as cell membranes, Membrane. The conditions noted are these: hek293. Further: in other assays of this panel Not Active means under 50% inhibition at 10 µM.
The target in assay [5] is T1, Polyunsaturated fatty acid lipoxygenase ALOX15 (Oryctolagus cuniculus, UniProt P12530).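 Further: inhibition of 15-lipoxygenase enzyme activity measured with linoleic acid as the substrate; in other assays of this panel Not Active means under 50% inhibition at 10 µM.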
T1 sequence (P12530 whole entry): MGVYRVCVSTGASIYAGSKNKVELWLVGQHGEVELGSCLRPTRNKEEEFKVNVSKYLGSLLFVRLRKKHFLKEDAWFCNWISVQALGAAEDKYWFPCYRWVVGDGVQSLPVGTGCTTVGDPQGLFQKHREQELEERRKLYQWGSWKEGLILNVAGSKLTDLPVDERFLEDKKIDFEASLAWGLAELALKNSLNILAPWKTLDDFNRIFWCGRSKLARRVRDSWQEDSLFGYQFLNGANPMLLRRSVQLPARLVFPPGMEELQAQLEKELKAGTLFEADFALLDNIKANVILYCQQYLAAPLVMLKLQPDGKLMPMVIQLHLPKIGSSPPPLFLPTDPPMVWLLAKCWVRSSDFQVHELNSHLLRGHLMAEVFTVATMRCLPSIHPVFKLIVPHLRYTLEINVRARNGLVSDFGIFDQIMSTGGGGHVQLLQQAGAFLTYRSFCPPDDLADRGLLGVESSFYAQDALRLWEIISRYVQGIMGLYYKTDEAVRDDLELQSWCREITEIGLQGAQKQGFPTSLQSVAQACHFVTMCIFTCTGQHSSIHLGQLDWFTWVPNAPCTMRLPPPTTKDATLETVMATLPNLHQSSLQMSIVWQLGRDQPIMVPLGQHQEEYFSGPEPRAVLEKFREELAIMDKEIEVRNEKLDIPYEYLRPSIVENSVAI
The experiment in a line: biochemical. It is filed as tissue-based, Reticulocytes. The conditions noted are these: reticulocytes.

The target of assay [6] is T2, Alpha-1D adrenergic receptor (Homo sapiens, UniProt P25100). Further: in other assays of this panel Not Active means under 50% inhibition at 10 µM.
T2 sequence (P25100 whole entry): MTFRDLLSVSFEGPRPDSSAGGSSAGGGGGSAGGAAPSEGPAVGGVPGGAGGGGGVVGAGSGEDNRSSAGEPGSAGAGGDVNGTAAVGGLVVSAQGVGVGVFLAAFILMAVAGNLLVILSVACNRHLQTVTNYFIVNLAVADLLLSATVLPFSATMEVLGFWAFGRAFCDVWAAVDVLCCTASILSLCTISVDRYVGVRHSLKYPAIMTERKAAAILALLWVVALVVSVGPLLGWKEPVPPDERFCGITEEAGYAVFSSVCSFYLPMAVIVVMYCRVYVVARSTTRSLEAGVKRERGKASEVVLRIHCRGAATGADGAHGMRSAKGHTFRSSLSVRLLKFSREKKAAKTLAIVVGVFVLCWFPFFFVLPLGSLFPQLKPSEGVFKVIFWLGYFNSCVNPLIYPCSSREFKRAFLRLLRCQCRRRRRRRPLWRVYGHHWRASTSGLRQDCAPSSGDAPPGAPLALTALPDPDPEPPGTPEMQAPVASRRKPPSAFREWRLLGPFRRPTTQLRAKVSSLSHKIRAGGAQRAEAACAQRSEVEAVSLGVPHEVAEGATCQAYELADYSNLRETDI
It is filed as cell membranes, HEK293, Membrane.

In general, IC50 refers to the concentration needed to halve the response being measured. One may read the Ki as the equilibrium dissociation constant of an inhibitor or competing ligand from its target.

Sequence of 5-hydroxytryptamine receptor 1B (P28564 whole entry): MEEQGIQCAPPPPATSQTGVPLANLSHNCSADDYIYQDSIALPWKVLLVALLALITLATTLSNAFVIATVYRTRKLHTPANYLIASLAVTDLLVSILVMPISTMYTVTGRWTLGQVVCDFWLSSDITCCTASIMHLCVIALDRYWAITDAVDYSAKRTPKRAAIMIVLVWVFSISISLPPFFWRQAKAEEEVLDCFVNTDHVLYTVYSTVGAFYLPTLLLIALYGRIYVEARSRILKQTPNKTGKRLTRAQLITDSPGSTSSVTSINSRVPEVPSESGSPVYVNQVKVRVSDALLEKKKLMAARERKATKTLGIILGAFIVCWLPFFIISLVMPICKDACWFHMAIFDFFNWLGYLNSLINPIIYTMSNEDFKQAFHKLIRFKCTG
Sequence of Mitogen-activated protein kinase 1 (P28482 whole entry): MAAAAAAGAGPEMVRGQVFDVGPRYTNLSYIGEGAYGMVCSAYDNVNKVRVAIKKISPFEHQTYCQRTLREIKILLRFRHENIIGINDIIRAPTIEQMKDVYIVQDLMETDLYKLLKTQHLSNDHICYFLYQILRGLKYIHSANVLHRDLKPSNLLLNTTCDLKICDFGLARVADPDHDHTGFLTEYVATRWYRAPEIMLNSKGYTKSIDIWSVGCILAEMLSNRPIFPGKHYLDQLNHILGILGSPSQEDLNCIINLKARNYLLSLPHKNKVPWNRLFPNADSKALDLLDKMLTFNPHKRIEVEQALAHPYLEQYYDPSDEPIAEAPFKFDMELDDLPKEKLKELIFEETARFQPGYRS
Sequence of C-C chemokine receptor type 5 (P51681 whole entry): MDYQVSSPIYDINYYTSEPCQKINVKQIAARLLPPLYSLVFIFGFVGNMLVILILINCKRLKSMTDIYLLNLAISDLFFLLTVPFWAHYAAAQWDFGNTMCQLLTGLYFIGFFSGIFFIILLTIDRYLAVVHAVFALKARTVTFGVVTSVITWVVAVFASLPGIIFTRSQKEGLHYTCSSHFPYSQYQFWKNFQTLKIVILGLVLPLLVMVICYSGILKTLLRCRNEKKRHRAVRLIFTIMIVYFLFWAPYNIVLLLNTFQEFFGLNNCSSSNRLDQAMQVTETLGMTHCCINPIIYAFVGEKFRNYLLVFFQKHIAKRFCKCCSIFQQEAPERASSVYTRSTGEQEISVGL
Sequence of 5-hydroxytryptamine receptor 6 (P50406 whole entry): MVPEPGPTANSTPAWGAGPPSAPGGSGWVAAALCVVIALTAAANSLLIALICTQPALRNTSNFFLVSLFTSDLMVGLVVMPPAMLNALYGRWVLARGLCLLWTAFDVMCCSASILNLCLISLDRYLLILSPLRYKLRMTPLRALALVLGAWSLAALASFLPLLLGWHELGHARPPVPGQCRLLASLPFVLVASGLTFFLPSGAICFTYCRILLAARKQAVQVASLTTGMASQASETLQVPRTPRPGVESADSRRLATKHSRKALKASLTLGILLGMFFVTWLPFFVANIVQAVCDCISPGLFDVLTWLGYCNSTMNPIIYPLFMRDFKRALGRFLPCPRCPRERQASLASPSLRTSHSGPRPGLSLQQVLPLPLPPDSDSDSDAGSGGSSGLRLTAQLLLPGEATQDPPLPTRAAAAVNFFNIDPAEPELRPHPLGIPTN

In the case of `CC[C@@H](C(=O)[C@@H](C)[C@@H](O)[C@H](C)[C@@H]1O[C@@H]([C@@H](CC)C(=O)O)CC[C@@H]1C)[C@H]1O[C@]2(C=C[C@@H](O)[C@]3(CC[C@@](C)([C@H]4CC[C@](O)(CC)[C@H](C)O4)O3)O2)[C@H](C)C[C@@H]1C` [SALINOMYCIN], the IC50 result in assay [1], in assay [2], in assay [3], in assay [4], in assay [5] and in assay [6] (hek293) was “Not Active” in each case.
As to `O=C(Oc1ccccc1C(=O)O)c1ccccc1O` [SALSALATE], the IC50 entry in assay [1], in assay [2], in assay [3], in assay [4], in assay [5] and in assay [6] (hek293) was “Not Active” each time.
On to `O=C(O)c1cn(-c2ccc(F)cc2)c2cc(N3CCNCC3)c(F)cc2c1=O` [SARAFLOXACIN], for which the 50% inhibitory concentration (IC50) entry in assay [1], in assay [2], in assay [3], in assay [4], in assay [5] and in assay [6] (hek293) was “Not Active” throughout.
Turning to `CN[C@H]1CC[C@@H](c2ccc(Cl)c(Cl)c2)c2ccccc21` [SERTRALINE], the IC50 entry in assay [1], in assay [2], in assay [3], in assay [4], in assay [5] and in assay [6] (hek293) was “Not Active” in each case.
Consider `CC(C)NCC(O)c1ccc(NS(C)(=O)=O)cc1` (stereo not drawn) [SOTALOL], for which the IC50 result in assay [1], in assay [2], in assay [3], in assay [4], in assay [5] and in assay [6] (hek293) was “Not Active” in each case.
In the case of `O.O.O.O.O.O.[Cl-].[Cl-].[Sr+2]` [STRONTIUM CHLORIDE HEXAHYDRATE], the IC50 entry in assay [1], in assay [2], in assay [3], in assay [4], in assay [5] and in assay [6] (hek293) was “Not Active” in each case.
Regarding `O=C1C(CC[S+]([O-])c2ccccc2)C(=O)N(c2ccccc2)N1c1ccccc1` (stereo not drawn) [SULFINPYRAZONE], the IC50 entry in assay [1], in assay [2], in assay [3], in assay [4], in assay [5] and in assay [6] (hek293) was “Not Active” in each case.
Turning to `NC(=O)N1C(=O)/C(=C(\O)c2cccs2)c2cc(Cl)ccc21` [TENIDAP], the IC50 result in assay [1], in assay [2], in assay [3], in assay [4], in assay [5] and in assay [6] (hek293) was “Not Active” throughout.
For the compound `COc1cc2nc(N3CCN(C(=O)C4CCCO4)CC3)nc(N)c2cc1OC` (stereo not drawn) [TERAZOSIN], the IC50 entry in assay [1] is “Not Active”; in assay [2], “Not Active”; in assay [3] it was “Not Active”; in assay [4], “Not Active”; in assay [5], “Not Active”; in assay [6] (read-out: IC50), 17 nM. Also, the Ki in assay [6] (read-out: Ki) turned out to be 8.36 nM.
Regarding `CN(C/C=C/C#CC(C)(C)C)Cc1cccc2ccccc12` [TERBINAFINE], the half-maximal inhibitory concentration (IC50) result in assay [1], in assay [2], in assay [3], in assay [4], in assay [5] and in assay [6] (hek293) was “Not Active” in each case.
On to `CCCCNc1ccc(C(=O)OCCN(C)C)cc1` [TETRACAINE], for which the IC50 result in assay [1], in assay [2], in assay [3], in assay [4], in assay [5] and in assay [6] (hek293) was “Not Active” throughout.
As for `Cn1c(=O)c2nc[nH]c2n(C)c1=O.O` [THEOPHYLLINE], the IC50 result in assay [1], in assay [2], in assay [3], in assay [4], in assay [5] and in assay [6] (hek293) was “Not Active” each time.
Regarding `CS(=O)(=O)c1ccc([C@@H](O)[C@@H](CO)NC(=O)C(Cl)Cl)cc1` [THIAMPHENICOL], the IC50 entry in assay [1], in assay [2], in assay [3], in assay [4], in assay [5] and in assay [6] (hek293) was “Not Active” each time.
`CCN(CC)CCNC(=O)c1cc(S(C)(=O)=O)ccc1OC` [TIAPRIDE]: the IC50 result in assay [1], in assay [2], in assay [3], in assay [4], in assay [5] and in assay [6] (hek293) was “Not Active” each time.
In the case of `Clc1ccccc1CN1CCc2sccc2C1` [TICLOPIDINE], the IC50 entry in assay [1], in assay [2], in assay [3], in assay [4], in assay [5] and in assay [6] (hek293) was “Not Active” in each case.
On to `NC1CCN(c2nc3c(cc2F)c(=O)c(C(=O)O)cn3-c2ccc(F)cc2F)C1` (stereo not drawn) [TOSUFLOXACIN], for which the IC50 entry in assay [1], in assay [2], in assay [3], in assay [4], in assay [5] and in assay [6] (hek293) was “Not Active” throughout.
On to `O=C(Nc1ccc(Br)cc1)c1cc(Br)cc(Br)c1O` [TRIBROMSALAN], for which the IC50 entry in assay [1] was “Not Active”; in assay [2], “Not Active”; in assay [3] (read-out: IC50), 623 nM; in assay [4], “Not Active”; in assay [5], “Not Active”; in assay [6] (hek293) it was “Not Active”.
Regarding `CC(c1cc2ccccc2s1)N(O)C(N)=O` (stereo not drawn) [ZILEUTON], the IC50 result in assay [1], in assay [2], in assay [3], in assay [4], in assay [5] and in assay [6] (hek293) was “Not Active” throughout.
On to MANGANESE CHLORIDE ANHYDROUS, for which the IC50 result in assay [1], in assay [2], in assay [3], in assay [4], in assay [5] and in assay [6] (hek293) was “Not Active” throughout. The Ki result in assay [1], in assay [2], in assay [3], in assay [4], in assay [5] and in assay [6] (hek293) was “Not Active” each time.
As for SODIUM ORTHOVANAD, the IC50 entry in assay [1], in assay [2], in assay [3], in assay [4], in assay [5] and in assay [6] (hek293) was “Not Active” each time. Besides, the Ki entry in assay [1], in assay [2], in assay [3], in assay [4], in assay [5] and in assay [6] (hek293) was “Not Active” throughout.
